Tests used:
[1] = tested on: ECFC/ADSC co-culture cell nuclei number
[2] = target: T1, hJAK2 (Homo sapiens, UniProt O60674); assay: Cerep LANCE kinase assay hJAK2 (S1 assay 33); type: biochemical; details: for hJAK2 LANCE IC50/EC50: assay number 33
T1 construct: purchased Cerep (LANCE kinase assay platform, contract assay)

[3] = tested on: HeLa cells; assay: cells; type: cell-based; details: for Hela CellCycMod PI 2N IC50/EC50: assay number 14; for Hela CellCycMod PI 4N IC50/EC50: assay number 16; for Hela CellCycMod PI MI IC50/EC50: assay number 17; for Hela CellCycMod PI Cell Number IC50/EC50: assay number 18
[4] = tested on: alkaline phosphatase (ALP) activity in C2C12 cells; type: cell-based; details: concentration response; for WntCondMedia_Alk Phos C2C12 IC50/EC50: assay number 6
[5] = target: T2, hGSK3b (Homo sapiens, UniProt P49841); assay: Cerep LANCE kinase assay hGSK3b (S1 assay 34); type: biochemical; details: for hGSK3b LANCE IC50/EC50: assay number 34
T2 construct: purchased Cerep (LANCE kinase assay platform, contract assay)

[6] = target: T3, hp70S6K1 (RPS6KB1) (Homo sapiens, UniProt P23443); assay: Cerep LANCE kinase assay hp70S6K1 (S1 assay 31); type: biochemical; details: for hp70S6K1 LANCE IC50/EC50: assay number 31
T3 construct: purchased Cerep (LANCE kinase assay platform, contract assay)

[7] = target: T4, hFLT3 (Homo sapiens, UniProt P36888); assay: Cerep LANCE kinase assay hFLT3 (S1 assay 35); type: biochemical; details: for hFLT3 LANCE IC50/EC50: assay number 35
T4 construct: purchased Cerep (LANCE kinase assay platform, contract assay)

[8] = tested on: nuclear β-catenin in C2C12 cells; assay: cells; type: cell-based; details: concentration response; for WntCondMedia_bCatenin C2C12 IC50/EC50: assay number 5
[9] = tested on: endothelial tube formation in co-cultures of ECFCs and ADSCs treated with VEGF; assay: cells; type: cell-based, human
[10] = target: T5, hKDR (Homo sapiens, UniProt P35968); assay: Cerep LANCE kinase assay hKDR (S1 assay 32); type: biochemical; details: for hKDR LANCE IC50/EC50: assay number 32
T5 construct: purchased Cerep (LANCE kinase assay platform, contract assay)
T5 sequence (P35968 20-1356): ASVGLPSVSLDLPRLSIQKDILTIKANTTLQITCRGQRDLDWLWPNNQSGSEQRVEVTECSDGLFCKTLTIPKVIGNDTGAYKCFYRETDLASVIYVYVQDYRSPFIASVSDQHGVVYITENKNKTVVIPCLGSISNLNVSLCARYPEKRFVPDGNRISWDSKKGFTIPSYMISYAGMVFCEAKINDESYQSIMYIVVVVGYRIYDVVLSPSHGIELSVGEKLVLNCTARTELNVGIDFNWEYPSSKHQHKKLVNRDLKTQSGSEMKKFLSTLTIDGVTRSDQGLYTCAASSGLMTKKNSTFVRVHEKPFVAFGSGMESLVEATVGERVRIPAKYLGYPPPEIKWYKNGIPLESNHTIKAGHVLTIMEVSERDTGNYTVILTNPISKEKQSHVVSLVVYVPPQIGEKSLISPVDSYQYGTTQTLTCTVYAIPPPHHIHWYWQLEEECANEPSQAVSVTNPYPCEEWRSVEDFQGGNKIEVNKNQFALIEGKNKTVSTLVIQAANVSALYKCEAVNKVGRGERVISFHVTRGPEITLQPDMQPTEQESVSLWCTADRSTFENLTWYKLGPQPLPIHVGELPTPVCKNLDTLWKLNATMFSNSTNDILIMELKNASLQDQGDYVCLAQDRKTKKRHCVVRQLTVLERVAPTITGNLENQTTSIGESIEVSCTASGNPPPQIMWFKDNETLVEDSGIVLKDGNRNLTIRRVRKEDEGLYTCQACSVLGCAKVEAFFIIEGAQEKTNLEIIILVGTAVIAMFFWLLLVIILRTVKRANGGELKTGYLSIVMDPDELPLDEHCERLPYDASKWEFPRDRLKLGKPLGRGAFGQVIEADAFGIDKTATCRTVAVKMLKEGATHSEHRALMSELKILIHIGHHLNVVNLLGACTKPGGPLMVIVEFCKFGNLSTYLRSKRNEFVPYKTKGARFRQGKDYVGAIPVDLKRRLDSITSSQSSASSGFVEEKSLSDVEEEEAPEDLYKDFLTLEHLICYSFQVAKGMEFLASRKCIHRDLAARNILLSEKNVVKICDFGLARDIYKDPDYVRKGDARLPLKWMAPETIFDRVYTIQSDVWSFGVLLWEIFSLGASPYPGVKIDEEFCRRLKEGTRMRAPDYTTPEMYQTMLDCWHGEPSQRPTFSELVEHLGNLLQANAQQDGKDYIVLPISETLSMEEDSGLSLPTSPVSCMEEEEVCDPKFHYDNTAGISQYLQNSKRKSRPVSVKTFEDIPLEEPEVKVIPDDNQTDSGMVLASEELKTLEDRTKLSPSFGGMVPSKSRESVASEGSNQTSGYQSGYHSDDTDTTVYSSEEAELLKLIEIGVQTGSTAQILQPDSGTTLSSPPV

T4 sequence (P36888 27-993): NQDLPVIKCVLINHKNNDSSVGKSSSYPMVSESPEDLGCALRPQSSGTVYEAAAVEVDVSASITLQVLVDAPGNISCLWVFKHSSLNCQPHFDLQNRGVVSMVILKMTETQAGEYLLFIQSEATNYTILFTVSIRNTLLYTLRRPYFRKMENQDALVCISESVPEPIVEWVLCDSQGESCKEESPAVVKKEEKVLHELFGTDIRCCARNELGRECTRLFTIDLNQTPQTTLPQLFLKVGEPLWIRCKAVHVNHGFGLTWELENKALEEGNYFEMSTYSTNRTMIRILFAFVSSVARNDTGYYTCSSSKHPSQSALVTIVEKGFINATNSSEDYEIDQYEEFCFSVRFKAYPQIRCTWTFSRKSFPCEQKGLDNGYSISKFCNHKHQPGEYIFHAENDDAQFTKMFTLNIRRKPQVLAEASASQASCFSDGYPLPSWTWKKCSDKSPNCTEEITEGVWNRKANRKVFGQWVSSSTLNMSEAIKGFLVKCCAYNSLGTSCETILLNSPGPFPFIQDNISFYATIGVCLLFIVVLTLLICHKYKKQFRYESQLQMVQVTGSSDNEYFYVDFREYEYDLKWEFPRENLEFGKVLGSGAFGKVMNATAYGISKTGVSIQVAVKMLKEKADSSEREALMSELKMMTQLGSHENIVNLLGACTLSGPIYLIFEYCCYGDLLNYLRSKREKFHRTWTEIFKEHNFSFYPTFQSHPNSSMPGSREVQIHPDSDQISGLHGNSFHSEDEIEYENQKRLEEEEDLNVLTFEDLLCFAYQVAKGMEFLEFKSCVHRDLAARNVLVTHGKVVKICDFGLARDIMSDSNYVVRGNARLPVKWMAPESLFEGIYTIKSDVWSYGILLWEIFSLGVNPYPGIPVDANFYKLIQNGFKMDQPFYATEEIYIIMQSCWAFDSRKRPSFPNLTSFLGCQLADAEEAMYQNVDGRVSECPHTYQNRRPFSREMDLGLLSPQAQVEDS
T2 sequence (P49841 whole entry): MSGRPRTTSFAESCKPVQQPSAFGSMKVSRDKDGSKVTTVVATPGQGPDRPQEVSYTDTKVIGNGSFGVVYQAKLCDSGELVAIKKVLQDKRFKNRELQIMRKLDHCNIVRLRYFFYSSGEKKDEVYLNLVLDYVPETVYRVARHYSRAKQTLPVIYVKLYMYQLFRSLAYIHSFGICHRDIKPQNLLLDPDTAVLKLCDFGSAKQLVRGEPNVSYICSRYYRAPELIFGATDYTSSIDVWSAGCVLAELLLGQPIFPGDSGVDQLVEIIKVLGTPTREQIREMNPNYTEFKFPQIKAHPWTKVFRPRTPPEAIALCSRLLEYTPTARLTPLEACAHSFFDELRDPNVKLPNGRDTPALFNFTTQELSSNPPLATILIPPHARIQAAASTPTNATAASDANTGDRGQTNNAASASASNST
T1 sequence (O60674 whole entry): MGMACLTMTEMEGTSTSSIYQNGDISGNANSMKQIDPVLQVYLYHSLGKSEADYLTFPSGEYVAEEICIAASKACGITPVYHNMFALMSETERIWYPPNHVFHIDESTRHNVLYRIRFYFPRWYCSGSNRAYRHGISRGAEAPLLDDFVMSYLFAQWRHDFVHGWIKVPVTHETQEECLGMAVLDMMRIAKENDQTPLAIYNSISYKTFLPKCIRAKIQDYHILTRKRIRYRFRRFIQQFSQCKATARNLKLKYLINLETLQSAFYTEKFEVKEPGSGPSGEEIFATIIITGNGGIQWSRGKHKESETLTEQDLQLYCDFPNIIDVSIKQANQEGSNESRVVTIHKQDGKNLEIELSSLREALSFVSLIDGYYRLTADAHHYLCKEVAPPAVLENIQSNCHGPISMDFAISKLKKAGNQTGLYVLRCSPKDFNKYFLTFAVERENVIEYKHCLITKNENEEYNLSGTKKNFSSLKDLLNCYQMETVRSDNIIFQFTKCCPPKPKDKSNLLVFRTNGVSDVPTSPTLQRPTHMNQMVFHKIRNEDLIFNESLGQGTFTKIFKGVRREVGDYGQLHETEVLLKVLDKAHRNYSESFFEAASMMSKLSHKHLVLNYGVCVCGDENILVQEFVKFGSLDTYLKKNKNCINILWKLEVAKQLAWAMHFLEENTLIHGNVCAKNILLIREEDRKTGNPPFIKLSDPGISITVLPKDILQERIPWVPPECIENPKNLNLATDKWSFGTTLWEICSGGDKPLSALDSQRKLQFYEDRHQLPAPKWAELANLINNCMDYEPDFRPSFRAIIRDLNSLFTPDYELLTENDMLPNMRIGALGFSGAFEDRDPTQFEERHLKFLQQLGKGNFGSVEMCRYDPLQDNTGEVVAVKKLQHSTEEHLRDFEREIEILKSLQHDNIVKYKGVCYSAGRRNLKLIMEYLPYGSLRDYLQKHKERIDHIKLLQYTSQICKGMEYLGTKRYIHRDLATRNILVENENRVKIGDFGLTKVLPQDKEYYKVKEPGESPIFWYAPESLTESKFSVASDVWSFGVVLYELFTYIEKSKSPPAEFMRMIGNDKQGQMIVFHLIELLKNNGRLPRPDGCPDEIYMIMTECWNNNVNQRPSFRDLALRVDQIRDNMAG
T3 sequence (P23443 whole entry): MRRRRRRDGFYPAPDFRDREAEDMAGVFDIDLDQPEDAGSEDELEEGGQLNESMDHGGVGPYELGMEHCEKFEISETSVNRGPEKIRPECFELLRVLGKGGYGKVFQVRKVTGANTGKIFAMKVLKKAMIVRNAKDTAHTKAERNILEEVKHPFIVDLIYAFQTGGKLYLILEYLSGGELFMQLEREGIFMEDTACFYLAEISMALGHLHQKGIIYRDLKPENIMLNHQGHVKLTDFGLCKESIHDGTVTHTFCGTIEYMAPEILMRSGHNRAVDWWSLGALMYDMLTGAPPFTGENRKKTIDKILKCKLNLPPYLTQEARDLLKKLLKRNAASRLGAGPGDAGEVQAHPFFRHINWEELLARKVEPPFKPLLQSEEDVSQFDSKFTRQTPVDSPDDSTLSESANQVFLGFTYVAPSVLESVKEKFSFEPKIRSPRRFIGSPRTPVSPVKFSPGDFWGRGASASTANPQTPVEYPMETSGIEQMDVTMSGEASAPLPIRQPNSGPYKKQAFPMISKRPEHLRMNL

Row | Compound | VEGF_ADSC\ECFC Angio Hoechst NucArea IC50/EC50 [1] | hJAK2 LANCE IC50/EC50 [2] | Hela CellCycMod PI 2N IC50/EC50 ([3]; 2N) | Hela CellCycMod PI 4N IC50/EC50 ([3]; 4N) | Hela CellCycMod PI MI IC50/EC50 ([3]; MI) | Hela CellCycMod PI Cell Number IC50/EC50 [3] | WntCondMedia_Alk Phos C2C12 IC50/EC50 [4] | hGSK3b LANCE IC50/EC50 [5] | hp70S6K1 LANCE IC50/EC50 [6] | hFLT3 LANCE IC50/EC50 [7] | WntCondMedia_bCatenin C2C12 IC50/EC50 [8] | VEGF_ADSC\ECFC Angio CD31 TubeArea IC50/EC50 [9] | hKDR LANCE IC50/EC50 [10] | also measured
1 | Cc1cc(O)c2ccccc2c1O [NCGC00253592-01] | 9.854 µM | > 20 µM | > 10 µM | > 10 µM | > 10 µM | 2.4571 µM | 1.7548 µM | 19.11 µM | > 20 µM | > 20 µM | 4.3946 µM | 4.8933 µM | 18.36 µM | Hela CellCycMod PI S Phase IC50/EC50 ([3]; assay number 15, S phase): > 10 µM
2 | COC(=O)c1nc(Cl)c(Cl)nc1N [NCGC00253704-01] |  |  |  |  |  |  |  |  |  |  |  |  |  | IC50/EC50, VEGF_ADSC\ECFC Angio Hoechst NucArea (assay number 3) [1]: 6.796 µM; IC50/EC50, hJAK2 LANCE (assay number 33) [2]: > 20 µM; IC50/EC50, Hela CellCycMod PI 2N (assay number 14) ([3]; 2N): 0.3341 µM; IC50/EC50, Hela CellCycMod PI 4N (assay number 16) ([3]; 4N): 0.5115 µM; IC50/EC50, Hela CellCycMod PI Cell Number (assay number 18) ([3]; Cell Number): 0.4075 µM; IC50/EC50, Hela CellCycMod PI MI (assay number 17) ([3]; MI): 0.8681 µM; IC50/EC50, Hela CellCycMod PI S Phase (assay number 15) ([3]; S Phase): > 10 µM; IC50/EC50, WntCondMedia_Alk Phos C2C12 (assay number 6) [4]: 0.1565 µM; IC50/EC50, hGSK3b LANCE (assay number 34) [5]: > 20 µM; IC50/EC50, hp70S6K1 LANCE (assay number 31) [6]: > 20 µM; IC50/EC50, hFLT3 LANCE (assay number 35) [7]: 2.86 µM; IC50/EC50, WntCondMedia_bCatenin C2C12 (assay number 5) [8]: 0.3085 µM; IC50/EC50, VEGF_ADSC\ECFC Angio CD31 TubeArea (assay number 2) [9]: 0.8652 µM; IC50/EC50, hKDR LANCE (assay number 32) [10]: > 20 µM
3 | Cc1ccccc1C(=O)Nc1ccc(C(=O)N2CCCC(N(C)C)c3ccccc32)cc1 (stereo not shown) [NCGC00262931-01] | > 10 µM | > 20 µM | > 10 µM | > 10 µM | 3.4063 µM | 2.9147 µM | 9.9815 µM | > 20 µM | > 20 µM | > 20 µM | 4.5593 µM | > 10 µM | > 20 µM | 
4 | CC[C@]1(O)C[C@H]2CN(CCc3c([nH]c4ccccc34)[C@@](C(=O)OC)(c3cc4c(cc3OC)N(C=O)[C@H]3[C@@](O)(C(=O)OC)[C@H](OC(C)=O)[C@]5(CC)C=CCN6CC[C@]43[C@@H]65)C2)C1 [NCGC00263543-01] | > 10 µM | > 20 µM | 0.0062 µM | 0.0059 µM | 0.0061 µM | 0.0065 µM | 0.0051 µM | > 20 µM | > 20 µM | > 20 µM | 0.004 µM | 0.0065 µM | > 20 µM | 
5 | CC[C@@H]([C@H](C)O)n1ncn(-c2ccc(N3CCN(c4ccc(OC[C@@H]5CO[C@@](Cn6cncn6)(c6ccc(F)cc6F)C5)cc4)CC3)cc2)c1=O [NCGC00274060-01] | > 10 µM | > 20 µM | > 10 µM | > 10 µM | > 10 µM | > 10 µM | 1.6342 µM | > 20 µM | > 20 µM | > 20 µM | 5.2923 µM | 6.461 µM | > 20 µM | 

Reference: paper PMC4503722, “Novel Phenotypic Outcomes Identified for a Public Collection of Approved Drugs from a Publicly Accessible Panel of Assays” (PLoS ONE, 2015)
